Results on 28 molecules are retold here after ChEMBL document CHEMBL1909046, “DrugMatrix in vitro pharmacology data”.

Assay [1] concerns the target T1, Alpha-2C adrenergic receptor (Homo sapiens, UniProt P18825).
T1 sequence (P18825 whole entry): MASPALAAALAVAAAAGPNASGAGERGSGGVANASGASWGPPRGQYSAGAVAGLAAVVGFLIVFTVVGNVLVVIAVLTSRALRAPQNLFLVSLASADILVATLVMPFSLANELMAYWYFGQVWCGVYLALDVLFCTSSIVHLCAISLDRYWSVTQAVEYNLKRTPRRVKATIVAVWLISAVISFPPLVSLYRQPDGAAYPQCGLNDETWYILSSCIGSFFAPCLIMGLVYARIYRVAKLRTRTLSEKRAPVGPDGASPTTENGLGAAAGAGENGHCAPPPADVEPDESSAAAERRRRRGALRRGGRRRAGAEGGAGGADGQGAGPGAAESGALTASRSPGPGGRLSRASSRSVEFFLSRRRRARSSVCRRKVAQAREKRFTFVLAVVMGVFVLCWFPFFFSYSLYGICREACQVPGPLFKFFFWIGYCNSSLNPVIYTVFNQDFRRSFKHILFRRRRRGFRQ
Briefly: DRUGMATRIX: Adrenergic Alpha-2C radioligand binding (ligand: [3H] MK-912). In kind it is cell membranes, Sf9, Membrane.

Another assay addresses D(3) dopamine receptor (Homo sapiens, UniProt P35462). Briefly: DRUGMATRIX: Dopamine D3 radioligand binding (ligand: [3H] Spiperone). In kind it is cell membranes, CHO, Membrane.
For a further assay, the target named is Histamine H2 receptor (Homo sapiens, UniProt P25021). In kind it is cell membranes, CHO-K1, Membrane. Further: in other assays of this panel Not Active means under 50% inhibition at 10 µM.
Histamine H2 receptor, sequence (P25021 whole entry): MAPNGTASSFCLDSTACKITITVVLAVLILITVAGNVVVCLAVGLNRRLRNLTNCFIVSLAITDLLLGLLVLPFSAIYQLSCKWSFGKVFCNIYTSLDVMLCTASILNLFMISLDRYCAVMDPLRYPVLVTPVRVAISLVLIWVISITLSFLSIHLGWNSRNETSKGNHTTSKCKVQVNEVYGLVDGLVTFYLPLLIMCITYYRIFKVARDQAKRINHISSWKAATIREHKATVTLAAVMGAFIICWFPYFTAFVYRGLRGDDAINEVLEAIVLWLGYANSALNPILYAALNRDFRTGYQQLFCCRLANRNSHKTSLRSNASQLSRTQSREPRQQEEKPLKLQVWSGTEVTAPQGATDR
A further assay has as its target T2, Progesterone receptor (Bos taurus, UniProt Q690N0).
T2 sequence (Q690N0 whole entry): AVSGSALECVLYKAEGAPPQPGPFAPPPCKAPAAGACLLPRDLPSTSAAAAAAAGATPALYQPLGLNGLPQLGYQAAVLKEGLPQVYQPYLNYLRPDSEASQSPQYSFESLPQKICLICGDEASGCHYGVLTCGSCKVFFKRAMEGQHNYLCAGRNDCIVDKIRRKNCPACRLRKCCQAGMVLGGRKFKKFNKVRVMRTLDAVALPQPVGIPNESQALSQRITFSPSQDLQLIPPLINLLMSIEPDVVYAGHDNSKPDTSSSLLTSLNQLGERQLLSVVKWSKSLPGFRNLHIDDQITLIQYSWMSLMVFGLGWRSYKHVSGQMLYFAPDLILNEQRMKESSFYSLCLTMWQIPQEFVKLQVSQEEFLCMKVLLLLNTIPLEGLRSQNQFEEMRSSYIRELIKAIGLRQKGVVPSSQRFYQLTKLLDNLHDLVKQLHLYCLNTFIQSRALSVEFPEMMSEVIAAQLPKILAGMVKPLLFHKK
Briefly: DRUGMATRIX: Progesterone radioligand binding (ligand: [3H] R-5020). In kind it is tissue-based, Uterus. The settings on record: Not Active = under 50% inhibition at 10 µM.

D(3) dopamine receptor, sequence (P35462 whole entry): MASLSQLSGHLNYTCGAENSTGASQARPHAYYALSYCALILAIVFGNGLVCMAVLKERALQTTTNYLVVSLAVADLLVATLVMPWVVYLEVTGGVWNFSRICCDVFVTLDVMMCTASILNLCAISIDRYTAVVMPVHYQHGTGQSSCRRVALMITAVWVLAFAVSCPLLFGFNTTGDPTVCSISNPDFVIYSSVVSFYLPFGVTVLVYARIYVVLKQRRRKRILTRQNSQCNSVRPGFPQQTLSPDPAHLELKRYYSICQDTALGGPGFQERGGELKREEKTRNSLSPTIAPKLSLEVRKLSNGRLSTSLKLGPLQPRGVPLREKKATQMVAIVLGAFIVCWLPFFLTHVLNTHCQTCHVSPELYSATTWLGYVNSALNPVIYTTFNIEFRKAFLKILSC

As a reminder, the IC50 is the concentration needed to halve the response being measured. For `CCCCC(=O)N(Cc1ccc(-c2ccccc2-c2nnn[nH]2)cc1)[C@H](C(=O)O)C(C)C`, the concentration for half-maximal inhibition (IC50) result (in assay [1] (sf9); at D(3) dopamine receptor (cho); on Histamine H2 receptor (cho-k1); at Progesterone receptor) was “Not Active” each time.
Take `O=C(O)COc1ccc(C(=O)c2cccs2)c(Cl)c1Cl`: the IC50 entry (in assay [1] (sf9); on D(3) dopamine receptor (cho); at Histamine H2 receptor (cho-k1); on Progesterone receptor) was “Not Active” each time.
A word on the Ki: it is the dissociation constant of the complex between target and ligand, obtained from inhibition or displacement. Consider `CN1[C@@H]2CC[C@H]1C[C@@H](OC(c1ccccc1)c1ccccc1)C2` [BENZTROPINE], for which the half-maximal inhibitory concentration (IC50) at D(3) dopamine receptor (read-out: IC50) is 654 nM; at Histamine H2 receptor (read-out: IC50), 1210 nM; at Progesterone receptor, “Not Active”. The Ki is 222 nM on D(3) dopamine receptor (read-out: Ki) and 1190 nM on Histamine H2 receptor (read-out: Ki).
Take `C[C@@](Cc1ccc(O)c(O)c1)(NN)C(=O)O.O` [CARBIDOPA]: the IC50 result (in assay [1] (sf9); at D(3) dopamine receptor (cho); at Histamine H2 receptor (cho-k1); on Progesterone receptor) was “Not Active” each time.
In the case of `CN1CCN(C2=Nc3cc(Cl)ccc3Nc3ccccc32)CC1` [CLOZAPINE], the IC50 at Histamine H2 receptor (read-out: IC50) was […]; at Progesterone receptor, “Not Active”. Besides, the Ki at Histamine H2 receptor (read-out: Ki) amounted to […].
`CC(C)NC[C@@H](O)COc1cccc2ccccc12` [DEXPROPRANOLOL]: the IC50 entry (in assay [1] (sf9); on D(3) dopamine receptor (cho); on Histamine H2 receptor (cho-k1); on Progesterone receptor) was “Not Active” in each case.
For the molecule `CC(C)NC[C@H](O)COc1cccc2ccccc12` [LEVOPROPRANOLOL], the half-maximal inhibitory concentration (IC50) result (in assay [1] (sf9); on D(3) dopamine receptor (cho); against Histamine H2 receptor (cho-k1); at Progesterone receptor) was “Not Active” in each case.
Turning to `O=C(O)CCCCC1CCSS1` (stereo not drawn) [LIPOIC ACID, ALPHA], the IC50 result (in assay [1] (sf9); on D(3) dopamine receptor (cho); against Histamine H2 receptor (cho-k1); at Progesterone receptor) was “Not Active” each time.
Take `CN(C)C(=O)C(CCN1CCC(O)(c2ccc(Cl)cc2)CC1)(c1ccccc1)c1ccccc1` [LOPERAMIDE]: the IC50 entry in assay [1] (sf9) is “Not Active”; on D(3) dopamine receptor (read-out: IC50), 1340 nM; on Histamine H2 receptor (read-out: IC50) it was 3080 nM; on Progesterone receptor, “Not Active”. Moreover, the Ki turned out to be 454 nM on D(3) dopamine receptor (read-out: Ki) and 3030 nM at Histamine H2 receptor (read-out: Ki).
Turning to `Clc1ccc(COC(Cn2ccnc2)c2ccc(Cl)cc2Cl)c(Cl)c1` (stereo unspecified) [MICONAZOLE], the IC50 entry was “Not Active” in assay [1] (sf9), 3200 nM on D(3) dopamine receptor (read-out: IC50), 6750 nM on Histamine H2 receptor (read-out: IC50) and 14900 nM at Progesterone receptor (read-out: IC50). The inhibitory constant (Ki) on D(3) dopamine receptor (read-out: Ki) worked out at 1090 nM; at Histamine H2 receptor (read-out: Ki), 6640 nM; on Progesterone receptor (read-out: Ki), 1940 nM.
With `Oc1ccc2c3c1O[C@H]1[C@@H](O)CC[C@@]4(O)[C@@H](C2)N(CC2CCC2)CC[C@]314` [NALBUPHINE], the 50% inhibitory concentration (IC50) entry (in assay [1] (sf9); at D(3) dopamine receptor (cho); against Histamine H2 receptor (cho-k1); at Progesterone receptor) was “Not Active” throughout.
As to `C[C@]12C=CC(=O)C=C1CC[C@@H]1[C@@H]2C(=O)C[C@@]2(C)[C@H]1CC[C@]2(O)C(=O)CO` [PREDNISONE], the half-inhibitory concentration (IC50) result (in assay [1] (sf9); on D(3) dopamine receptor (cho); on Histamine H2 receptor (cho-k1); on Progesterone receptor) was “Not Active” throughout.
With `OCCOCCN1CCN(C2=Nc3ccccc3Sc3ccccc32)CC1` [QUETIAPINE], the IC50 result on Histamine H2 receptor (cho-k1) and at Progesterone receptor was “Not Active” in each case.
`COC(=O)[C@H]1[C@H]2C[C@@H]3c4[nH]c5cc(OC)ccc5c4CCN3C[C@H]2C[C@@H](OC(=O)c2cc(OC)c(OC)c(OC)c2)[C@@H]1OC` [RESERPINE]: the IC50 entry (in assay [1] (sf9); on D(3) dopamine receptor (cho); at Histamine H2 receptor (cho-k1); on Progesterone receptor) was “Not Active” in each case.
`O=C(O)c1ccccc1O` [SALICYLIC ACID]: the IC50 result (in assay [1] (sf9); at D(3) dopamine receptor (cho); against Histamine H2 receptor (cho-k1); at Progesterone receptor) was “Not Active” each time.
Turning to `C[S+]([O-])c1ccc(-c2nc(-c3ccncc3)c(-c3ccc(F)cc3)[nH]2)cc1` (stereo unspecified) [SB-203580], the concentration for half-maximal inhibition (IC50) entry (in assay [1] (sf9); at D(3) dopamine receptor (cho); against Histamine H2 receptor (cho-k1); on Progesterone receptor) was “Not Active” each time.
For `CC1CCC(NC(=O)N(CCCl)N=O)CC1` (stereo unspecified) [SEMUSTINE], the half-inhibitory concentration (IC50) entry (in assay [1] (sf9); at D(3) dopamine receptor (cho); at Histamine H2 receptor (cho-k1); on Progesterone receptor) was “Not Active” in each case.
In the case of `O=C1C[C@@H]2OCC=C3CN4CC[C@]56c7ccccc7N1[C@H]5[C@H]2[C@H]3C[C@H]46` [STRYCHNINE], the half-maximal inhibitory concentration (IC50) entry (in assay [1] (sf9); on D(3) dopamine receptor (cho); at Histamine H2 receptor (cho-k1); on Progesterone receptor) was “Not Active” in each case.
For the molecule `C[N+](C)(C)CCOC(=O)CCC(=O)OCC[N+](C)(C)C.[Cl-].[Cl-]` [SUCCINYLCHOLINE CHLORIDE], the concentration for half-maximal inhibition (IC50) result (in assay [1] (sf9); at D(3) dopamine receptor (cho); against Histamine H2 receptor (cho-k1); at Progesterone receptor) was “Not Active” each time.
As for `Nc1ccc(S(=O)(=O)NC(=O)c2ccccc2)cc1` [SULFABENZAMIDE], the IC50 entry (in assay [1] (sf9); on D(3) dopamine receptor (cho); at Histamine H2 receptor (cho-k1); at Progesterone receptor) was “Not Active” in each case.
As for `CCCCCCCCNC(C)C(O)c1ccc(SC(C)C)cc1` (stereo unspecified) [SULOCTIDIL], the 50% inhibitory concentration (IC50) in assay [1] (read-out: IC50) is 3450 nM; at D(3) dopamine receptor (read-out: IC50), 2100 nM; on Histamine H2 receptor (read-out: IC50), 108 nM; on Progesterone receptor it was “Not Active”. Further, the results for the Ki (in assay [1] (read-out: Ki); at D(3) dopamine receptor (read-out: Ki); on Histamine H2 receptor (read-out: Ki)) were 501 nM, 715 nM and 88.5 nM, respectively.
On to `O=c1[nH]c(=O)n(C2CCCO2)cc1F` (stereo unspecified) [TEGAFUR], for which the IC50 entry (in assay [1] (sf9); at D(3) dopamine receptor (cho); on Histamine H2 receptor (cho-k1); on Progesterone receptor) was “Not Active” each time.
For the molecule `CC(=N)S` [THIOACETAMIDE], the IC50 result (in assay [1] (sf9); at D(3) dopamine receptor (cho); at Histamine H2 receptor (cho-k1); at Progesterone receptor) was “Not Active” in each case.
`Cc1ccc(C(=O)c2ccc(CC(=O)O)n2C)cc1` [TOLMETIN]: the IC50 result (in assay [1] (sf9); on D(3) dopamine receptor (cho); at Histamine H2 receptor (cho-k1); on Progesterone receptor) was “Not Active” each time.
As to `CC(=O)OCC(COC(C)=O)OC(C)=O` [TRIACETIN], the IC50 entry (in assay [1] (sf9); at D(3) dopamine receptor (cho); at Histamine H2 receptor (cho-k1); at Progesterone receptor) was “Not Active” in each case.
As for `CN1CCN(CCCN2c3ccccc3Sc3ccc(C(F)(F)F)cc32)CC1` [TRIFLUOPERAZINE], the IC50 entry (in assay [1] (sf9); at D(3) dopamine receptor (cho); on Histamine H2 receptor (cho-k1); on Progesterone receptor) was “Not Active” each time.
With TRANSPLATIN, the half-maximal inhibitory concentration (IC50) result in assay [1] (sf9) is “Not Active”; on D(3) dopamine receptor (cho, read-out: IC50), 3320 nM; against Histamine H2 receptor (cho-k1), “Not Active”; on Progesterone receptor it was “Not Active”. Also, the Ki result in assay [1] (sf9) is “Not Active”; on D(3) dopamine receptor (cho, read-out: Ki) it was 1130 nM; on Histamine H2 receptor (cho-k1), “Not Active”; on Progesterone receptor, “Not Active”.
Regarding ZIRCONIUM(IV) CHLORIDE, the IC50 entry (in assay [1] (sf9); at D(3) dopamine receptor (cho); against Histamine H2 receptor (cho-k1); at Progesterone receptor) was “Not Active” throughout. Moreover, the Ki entry (in assay [1] (sf9); at D(3) dopamine receptor (cho); on Histamine H2 receptor (cho-k1); on Progesterone receptor) was “Not Active” throughout.
